According to US6423745B1, “Pyrethroid compound and composition for controlling pest containing the same as an active ingredient” (Sumitomo Chemical Co., Ltd., priority 1998, dated 2002):

Columns and labels:
[1] = tested on: common mosquito (Culex pipiens pallens); experiment: Effect of a mosquito coil on common mosquito (knock-down); format: in vivo; design: key: Excellent: All the insects were knocked down (the total in the two replications).; Good: 1 to 3 insects were not knocked down (ditto).; Mediocre: 4 to 6 insects were not knocked down (ditto).; Bad: 7 or more insects were not knocked down (ditto); settings: 0.3 g coil burnt 30 seconds in 0.34 m^3 glass chamber, female adults counted after fifteen minutes
Description: Effect of a mosquito coil on common mosquito (Culex pipiens pallens)
A base material for mosquito coil (obtained by stirring a 4:3:3 mixture of Tabu powder, Pyrethrum marc and wood powder, adding water thereto, thoroughly kneading the resulting mixture, and molding and drying the kneaded mixture) was uniformly impregnated with a solution of the present compound in acetone so that the material contains a predetermined amount of the compound. The resultant base material was air-dried to obtain a mosquito coil.
Ten female adult common mosquitoes were released in a glass chamber (70 cm cube, capacity: 0.34 m^3). 0.3 Gram of a mosquito coil containing the present compound prepared according to the procedure described above was set on a holder in the center of bottom of the chamber, ignited at one end thereof, and taken out of the chamber after 30 seconds of combustion. The knocked-down common mosquitoes were counted in fifteen minutes after the setting of the coil.
(§1) The same test procedure was repeated for (S)-2-methyl-4-oxo-3-(2-propynyl)-cyclopent-2-enyl (1RS)-cis-3-(2,2-dichlorovinyl)-2,2-dimethylcyclopropanecarboxylate (hereinafter referred to as reference compound A).
In Table 1, the knocking-down activity is indicated according to the following criterion: […]

[2] = tested on: common mosquito (Culex pipiens pallens); experiment: Effect of spraying of an oil formulation on common mosquito (knock-down); format: in vivo; settings: 0.7 ml sprayed in 0.34 m^3 glass chamber, female adults counted after two minutes
Description: Effect of spraying of an oil formulation on common mosquito (Culex pipiens pallens)
Ten female adult common mosquitoes were released in a glass chamber (70 cm cube, capacity: 0.34 m^3). 0.7 Milliliter of an oil formulation containing a predetermined concentration (shown in Table 2) of the present compound prepared according to Formulation Example 7 was sprayed into the chamber through a small side window of the chamber with a spray gun. The knocked-down common mosquitoes were counted in two minutes after the spraying.
as §1
In Table 2, the knocking-down activity is indicated according to the following criterion: […]

[3] = tested on: American cockroach (Periplaneta americana); experiment: Insecticidal activity against American cockroach (topical application); format: in vivo; settings: 72 h, read-out: Insecticidal activity against American cockroach (LD50)
Description: Insecticidal Activity Against American Cockroach (Periplaneta americana) and Toxicity to Rat Insecticidal Activity Against American Cockroach
Each of the present compound and reference compound A were diluted with acetone to prepare dilutions of prescribed concentrations. Each dilution was applied on the sterna of female adult American cockroaches with a micro-applicator in a volume of 1.0 μl per insect. Then, the insects were given water and diet. After 72 hours, the dead and alive were counted. From the mortality, LD50 (mg/kg) value was determined.

Toxicity to rat = settings: in vivo, male rats, dilution in corn oil, 10 ml/kg, mortality after 7 days
Description: Each of the present compound and reference compound A was diluted with corn oil to predetermined concentrations. Each of the dilutions thus prepared was administered to male rats in an amount of 10 ml/kg. The rats were given water and diet. After 7 days, the dead and alive were counted for mortality. From the mortality, LD50 (mg/kg) value was determined.

[4] = Calculation of safety factor (rat LD50 / American cockroach LD50); settings: [Toxicity to rat (LD50 value)]/[Insecticidal activity against American cockroach (LD50 value)]
Description: Calculation of Safety Factor
The safety factor was calculated from the insecticidal activity against American cockroach and the toxicity to rat according to the following equation.
Safety factor=[Toxicity to rat (LD50 value)]/[Insecticidal activity against American cockroach (LD50 value)]

Compound	Knocking-down activity ([1]; concentration 0.5 % W/W)	Knocking-down activity ([1]; concentration 1.0 % W/W)	Knocking-down activity ([2]; concentration 0.025 % W/W)	Knocking-down activity ([2]; concentration 0.05 % W/W)	LD50 [3] [mg/kg]	LD50 at 7 days (Toxicity to rat) [mg/kg]	Safety factor [4]
C#CCC1=C(C)[C@@H](OC(=O)[C@@H]2[C@H](C=C(Cl)Cl)C2(C)C)CC1=O (racemic) [A, (S)-2-methyl-4-oxo-3-(2-propynyl)-cyclopent-2-enyl (1RS)-cis-3-(2,2-dichlorovinyl)-2,2-dimethylcyclopropanecarboxylate]	Bad (7 or more insects were not knocked down (ditto).)	Bad (7 or more insects were not knocked down (ditto).)	Bad (7 or more insects were not knocked down (ditto).)	Bad (7 or more insects were not knocked down (ditto).)	4.4	< 100	<23
C#CCC1=C(C)[C@@H](OC(=O)[C@@H]2[C@@H](C=C(Cl)Cl)C2(C)C)CC1=O [Present compound, (S)-2-methyl-4-oxo-3-(2-propynyl)-cyclopent-2-enyl (1R)-trans-3-(2,2-dichlorovinyl)-2,2-dimethylcyclopropanecarboxylate]	Excellent		Good (3 or less insects were not knocked down (the total in the two replications).)		0.72	> 300	>420
